According to ChEMBL document CHEMBL1201862, “PubChem BioAssay data set” (2004):
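48-hour exposure; five concentrations; linearly interpolated endpoints. GI50 = concentration required for 50% inhibition of growth.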 Calls of active or inactive are those of the source. Rule as the data show it: active = GI50 up to about 1.1 µM and inactive = higher.

Legend:
Assay in all cases: NCI-60 cell line screen, 48 h
MOLT-4 = system: MOLT-4
SNB-75 = system: SNB-75
COLO 205 = system: COLO 205
OVCAR-8 = system: OVCAR-8
ACHN = system: ACHN
IGROV-1 = system: IGROV-1
TK-10 = system: TK-10
SK-MEL-28 = system: SK-MEL-28
UACC-62 = system: UACC-62
OVCAR-4 = system: OVCAR-4
U-251 = system: U-251
RPMI-8226 = system: RPMI-8226
OVCAR-3 = system: OVCAR-3
KM12 = system: KM12
SK-MEL-2 = system: SK-MEL-2
HCT-15 = system: HCT-15
CAKI-1 = system: CAKI-1

SMILES	GI50 (MOLT-4)	GI50 (SNB-75)	GI50 (COLO 205)	GI50 (OVCAR-8)	GI50 (ACHN)	GI50 (IGROV-1)	GI50 (TK-10)	GI50 (SK-MEL-28)	GI50 (UACC-62)	GI50 (OVCAR-4)	GI50 (U-251)	GI50 (RPMI-8226)	GI50 (OVCAR-3)	GI50 (KM12)	GI50 (SK-MEL-2)	GI50 (HCT-15)	GI50 (CAKI-1)
O=[N+]([O-])c1ccc2nc(/C(=N\Nc3ccccc3)C(O)c3ccc4c(c3)OCO4)c(O)nc2c1 (centres undefined)	> 100 µM (inactive)	60 µM (inactive)	> 100 µM (inactive)	> 100 µM (inactive)	30.7 µM (inactive)	7.74 µM (inactive)	> 100 µM (inactive)	> 100 µM (inactive)	34 µM (inactive)	> 100 µM (inactive)	> 100 µM (inactive)	86.1 µM (inactive)	> 100 µM (inactive)	41.6 µM (inactive)	> 100 µM (inactive)	20.7 µM	
CC1=CC(=O)N2[C@H](OC[C@@H]2C(C)C)O1	> 100 µM (inactive)	> 100 µM (inactive)	> 100 µM (inactive)	> 100 µM (inactive)	> 100 µM (inactive)	> 100 µM (inactive)	> 100 µM (inactive)	> 100 µM (inactive)	> 100 µM (inactive)	> 100 µM (inactive)	> 100 µM (inactive)	> 100 µM (inactive)	> 100 µM (inactive)	> 100 µM (inactive)	> 100 µM (inactive)	> 100 µM	> 100 µM (inactive)
Cc1ccc(N2C(=O)/C(=C/c3ccc(N(CCC#N)CCC#N)cc3)N=C2COc2ccc(Cl)cc2Cl)cc1	> 100 µM (inactive)	> 100 µM (inactive)	> 100 µM (inactive)	> 100 µM (inactive)	> 100 µM (inactive)	> 100 µM (inactive)	> 100 µM (inactive)	> 100 µM (inactive)	> 100 µM (inactive)	> 100 µM (inactive)	> 100 µM (inactive)	> 100 µM (inactive)	> 100 µM (inactive)	> 100 µM (inactive)	> 100 µM (inactive)	> 100 µM	> 100 µM (inactive)
CCOC(=O)c1cnc2sc3ccc4ccccc4c3n2c1=O	28.1 µM (inactive)	> 100 µM (inactive)	79.3 µM (inactive)	48.6 µM (inactive)	33.1 µM (inactive)	42.5 µM (inactive)	62.5 µM (inactive)	98.6 µM (inactive)	77.6 µM (inactive)	38.9 µM (inactive)	94 µM (inactive)	27.9 µM (inactive)	82.2 µM (inactive)	68.4 µM (inactive)	41.5 µM (inactive)	46.3 µM	29.5 µM (inactive)
CC(C)CCS(=O)(=O)OCCCCOS(=O)(=O)CCC(C)C	> 100 µM (inactive)	> 100 µM (inactive)	> 100 µM (inactive)	> 100 µM (inactive)	> 100 µM (inactive)	> 100 µM (inactive)	> 100 µM (inactive)	> 100 µM (inactive)	> 100 µM (inactive)		> 100 µM (inactive)	> 100 µM (inactive)	16.4 µM (inactive)	> 100 µM (inactive)		> 100 µM	
CCC(=C(C#N)C#N)c1cc(OC)c(OC)c(OC)c1	> 100 µM (inactive)		> 100 µM (inactive)	> 100 µM (inactive)	> 100 µM (inactive)	> 100 µM (inactive)	> 100 µM (inactive)	> 100 µM (inactive)	> 100 µM (inactive)	> 100 µM (inactive)	> 100 µM (inactive)	15.6 µM (inactive)	> 100 µM (inactive)	> 100 µM (inactive)	> 100 µM (inactive)	> 100 µM	> 100 µM (inactive)
N#CC1(C#N)C(c2ccc(C3C(C#N)(C#N)C3(C#N)C#N)cc2)C1(C#N)C#N	> 100 µM (inactive)	> 100 µM (inactive)	> 100 µM (inactive)	> 100 µM (inactive)	> 100 µM (inactive)	> 100 µM (inactive)	> 100 µM (inactive)	> 100 µM (inactive)	> 100 µM (inactive)	> 100 µM (inactive)	> 100 µM (inactive)	> 100 µM (inactive)	> 100 µM (inactive)	> 100 µM (inactive)	> 100 µM (inactive)	> 100 µM	> 100 µM (inactive)
